Results reported in patent US3957779A, “Benzo-1,2,4-triazines” (Bayer Aktiengesellschaft, priority 1972, dated 1976).
In brackets after ≈: the same amount, converted by molar mass.

Tests used:
Type in all cases: cell-based
Klebsiella 63 = experiment: MIC, plate test (Table 1); details: 37°C, 24 hours, read-out: Minimum inhibitory concentration (MIC)
Protocol: (§1) The minimum inhibitory concentration (MIC) was determined in the plate test on a complete nutrient base of the following composition: 10 g of proteose-peptone, 10 g of veal infusion, 2 g of dextrose, 3 g of sodium chloride, 2 g of disodium phosphate, 1 g of sodium acetate, 0.01 g of adenine sulphate, 0.01 g of guanine hydrochloride, 0.01 g of uracil, 0.01 g. of xantin, 12 g of agar-agar and 1 liter of water.
(§2) The incubation temperature was 37°C and the incubation time was 24 hours.

Klebsiella 8085 = experiment: MIC, plate test (Table 1); details: 37°C, 24 hours, read-out: Minimum inhibitory concentration (MIC)
Protocol: as §1, §2

Pseudomonas aeruginosa w [1] = experiment: MIC, plate test (Table 1); details: 37°C, 24 hours, read-out: Minimum inhibitory concentration (MIC)
Protocol: as §1, §2

Escherichia coli A261 = experiment: MIC, plate test (Table 1); details: 37°C, 24 hours, read-out: Minimum inhibitory concentration (MIC)
Protocol: as §1, §2

Escherichia coli C165 = experiment: MIC, plate test (Table 1); details: 37°C, 24 hours, read-out: Minimum inhibitory concentration (MIC)
Protocol: as §1, §2

[2] = tested on: Staphylococcus aureus 133; experiment: MIC, plate test (Table 1); details: 37°C, 24 hours, read-out: Minimum inhibitory concentration (MIC)
Protocol: as §1, §2

Streptococcus pyogenes = experiment: MIC, plate test (Table 1); details: with serum, 37°C, 24 hours, read-out: Minimum inhibitory concentration (MIC)
Protocol: as §1, §2

Pseudomonas aeruginosa B [3] = experiment: MIC, plate test (Table 1); details: 37°C, 24 hours, read-out: Minimum inhibitory concentration (MIC)
Protocol: as §1, §2

Salmonella species [4] = experiment: MIC, plate test (Table 1); details: 37°C, 24 hours, read-out: Minimum inhibitory concentration (MIC)
Protocol: as §1, §2

Proteus vulgaris 1017 [5] = experiment: MIC, plate test (Table 1); details: 37°C, 24 hours, read-out: Minimum inhibitory concentration (MIC)
Protocol: as §1, §2

Mycoplasma granularum = experiment: MIC, series dilution test, PPLO-medium (Table 1); details: Acholeplasma granularum, 37°C, 18, 24 and 48 hours, read-out: Minimum inhibitory concentration (MIC)
Protocol: (§3) The mycoplasmae were tested in the series dilution test (PPLO-medium) at 37°C, with observations after 18, 24 and 48 hours.

Mycoplasma gallisepticum = experiment: MIC, series dilution test, PPLO-medium (Table 1); details: Mycoplasmoides gallisepticum, 37°C, 18, 24 and 48 hours, read-out: Minimum inhibitory concentration (MIC)
Protocol: as §3

Mycoplasma bovirhinis = experiment: MIC, series dilution test, PPLO-medium (Table 1); details: 37°C, 18, 24 and 48 hours, read-out: Minimum inhibitory concentration (MIC)
Protocol: as §3

[6] = tested on: Mycobacterium tuberculosis; experiment: MIC, series dilution test, Jenssen egg medium; details: 37°C, read-out: minimum inhibitory concentration
Protocol: The compounds of Examples 12 and 13 show minimum inhibitory concentrations of 32 γ/ml of nutrient medium in the series dilution test, Jenssen egg medium, 37°C, against Mycobacterium tuberculosis.

Enterobacter species = experiment: Turbidity test in Mueller-Hinton nutrient solution; details: 100 γ/ml, 24 hours, 37°C
[7] = tested on: Corynebacterium pyogenes M; experiment: Turbidity test in Mueller-Hinton nutrient solution; details: 100 γ/ml, 24 hours, 37°C
Klebsiella K 10 = experiment: Turbidity test in Mueller-Hinton nutrient solution; details: 100 γ/ml, 24 hours, 37°C
Clostridium botulinium = tested on: Clostridium botulinium
Pseudomonas aeruginosa B [8] = experiment: Turbidity test in Mueller-Hinton nutrient solution; details: 100 γ/ml, 24 hours, 37°C
Shigella species = experiment: Turbidity test in Mueller-Hinton nutrient solution; details: 100 γ/ml, 24 hours, 37°C
Protocol: (§4) 100 γ/ml of the compounds according to the invention are dissolved in Mueller-Hinton nutrient solution, with addition of 0.1% of glucose. The nutrient solution contains […] microbes per ml. The mixture is incubated in glass test tubes for 24 hours at 37°C and after this time the degree of turbidity is determined.

Salmonella species [9] = experiment: Turbidity test in Mueller-Hinton nutrient solution; details: 100 γ/ml, 24 hours, 37°C
Protocol: as §4

Klebsiella K 63 = experiment: Turbidity test in Mueller-Hinton nutrient solution; details: 100 γ/ml, 24 hours, 37°C
Pseudomonas aeruginosa w [10] = experiment: Turbidity test in Mueller-Hinton nutrient solution; details: 100 γ/ml, 24 hours, 37°C
Serratia species = experiment: Turbidity test in Mueller-Hinton nutrient solution; details: 100 γ/ml, 24 hours, 37°C
[11] = tested on: Aeromonas hydrophila species; experiment: Turbidity test in Mueller-Hinton nutrient solution; details: 100 γ/ml, 24 hours, 37°C
Brucella species = details: 100 γ/ml, 24 hours, 37°C
[12] = tested on: Haemophilus influenzae 281; experiment: Turbidity test in Mueller-Hinton nutrient solution; details: 100 γ/ml, 24 hours, 37°C
[13] = tested on: Pasteurella pseudotuberculosis; details: 100 γ/ml, 24 hours, 37°C
Bacteroides species = experiment: Turbidity test in Mueller-Hinton nutrient solution; details: 100 γ/ml, 24 hours, 37°C
[14] = tested on: Proteus indole-negative, species; experiment: Turbidity test in Mueller-Hinton nutrient solution; details: 100 γ/ml, 24 hours, 37°C
Borrelia species = experiment: Turbidity test in Mueller-Hinton nutrient solution; details: 100 γ/ml, 24 hours, 37°C
[15] = tested on: Staphylococcus aureus 133; experiment: Turbidity test in Mueller-Hinton nutrient solution; details: 100 γ/ml, 24 hours, 37°C
[16] = tested on: Neisseria catarrhalis species; experiment: Turbidity test in Mueller-Hinton nutrient solution; details: 100 γ/ml, 24 hours, 37°C
[17] = tested on: Proteus indole-positive, species; experiment: Turbidity test in Mueller-Hinton nutrient solution; details: 100 γ/ml, 24 hours, 37°C
Proteus vulgaris 1017 [18] = experiment: Turbidity test in Mueller-Hinton nutrient solution; details: 100 γ/ml, 24 hours, 37°C
[19] = tested on: Diplococcus pneumoniae species; experiment: Turbidity test in Mueller-Hinton nutrient solution; details: 100 γ/ml, 24 hours, 37°C
Clostridium tetani = details: 100 γ/ml, 24 hours, 37°C
Streptococcus pyogenes W = experiment: Turbidity test in Mueller-Hinton nutrient solution; details: 100 γ/ml, 24 hours, 37°C
[20] = tested on: Corynebacterium diphtheriae gravis; experiment: Turbidity test in Mueller-Hinton nutrient solution; details: 100 γ/ml, 24 hours, 37°C
Escherichia coli A 261 = experiment: Turbidity test in Mueller-Hinton nutrient solution; details: 100 γ/ml, 24 hours, 37°C
Escherichia coli 14 = experiment: Turbidity test in Mueller-Hinton nutrient solution; details: 100 γ/ml, 24 hours, 37°C
Enterococcus species = experiment: Turbidity test in Mueller-Hinton nutrient solution; details: 100 γ/ml, 24 hours, 37°C
Escherichia coli C 165 = experiment: Turbidity test in Mueller-Hinton nutrient solution; details: 100 γ/ml, 24 hours, 37°C
Lactobacillus species = experiment: Turbidity test in Mueller-Hinton nutrient solution; details: 100 γ/ml, 24 hours, 37°C
[21] = tested on: Bordetella bronchiseptica; experiment: Turbidity test in Mueller-Hinton nutrient solution; details: 100 γ/ml, 24 hours, 37°C

Structure (SMILES): CC(=O)Nc1n[n+]([O-])c2ccccc2[n+]1[O-] [Example 2, 3-(N-acetylamino)-benzo-1,2,4-triazine-1,4-di-N-oxide]
- MIC (Klebsiella 63): < 0.5 µg/mL
- MIC (Klebsiella 8085): < 0.5 µg/mL
- MIC (Pseudomonas aeruginosa w [1]): 8 µg/mL (≈ 36.3 µM)
- MIC (Escherichia coli A261): < 0.5 µg/mL
- MIC (Escherichia coli C165): < 0.5 µg/mL
- MIC [2]: < 0.5 µg/mL
- MIC (Streptococcus pyogenes): 1 µg/mL (≈ 4.54 µM)
- MIC (Pseudomonas aeruginosa B [3]): 4 µg/mL (≈ 18.2 µM)
- MIC (Salmonella species [4]): 1 µg/mL (≈ 4.54 µM)
- MIC (Proteus vulgaris 1017 [5]): < 0.5 µg/mL
- MIC (Mycoplasma granularum): < 0.125 µg/mL
- MIC (Mycoplasma gallisepticum): < 0.125 µg/mL
- MIC (Mycoplasma bovirhinis): < 0.125 µg/mL

Structure (SMILES): CCC(=O)Nc1n[n+]([O-])c2ccccc2[n+]1[O-] [Example 3, 3-(N-propionylamino)-benzo-1,2,4-triazine-1,4-di-N-oxide]
- MIC (Klebsiella 63): 4 µg/mL (≈ 17.1 µM)
- MIC (Klebsiella 8085): 1 µg/mL (≈ 4.27 µM)
- MIC (Pseudomonas aeruginosa w [1]): 128 µg/mL (≈ 547 µM)
- MIC (Escherichia coli A261): 4 µg/mL (≈ 17.1 µM)
- MIC (Escherichia coli C165): 4 µg/mL (≈ 17.1 µM)
- MIC [2]: 1 µg/mL (≈ 4.27 µM)
- MIC (Streptococcus pyogenes): 128 µg/mL (≈ 547 µM)
- MIC (Pseudomonas aeruginosa B [3]): 128 µg/mL (≈ 547 µM)
- MIC (Salmonella species [4]): 4 µg/mL (≈ 17.1 µM)
- MIC (Proteus vulgaris 1017 [5]): 1 µg/mL (≈ 4.27 µM)
- MIC (Mycoplasma granularum): < 0.125 µg/mL
- MIC (Mycoplasma gallisepticum): < 0.125 µg/mL
- MIC (Mycoplasma bovirhinis): < 0.125 µg/mL

Structure (SMILES): CC(=O)CC(=O)Nc1n[n+]([O-])c2ccccc2[n+]1[O-] [Example 4, 3-(N-acetoacetylamino)-benzo-1,2,4-triazine-1,4-di-N-oxide]
- MIC (Klebsiella 63): 128 µg/mL (≈ 488 µM)
- MIC (Klebsiella 8085): 4 µg/mL (≈ 15.3 µM)
- MIC (Pseudomonas aeruginosa w [1]): 128 µg/mL (≈ 488 µM)
- MIC (Escherichia coli A261): 8 µg/mL (≈ 30.5 µM)
- MIC (Escherichia coli C165): 8 µg/mL (≈ 30.5 µM)
- MIC [2]: 8 µg/mL (≈ 30.5 µM)
- MIC (Streptococcus pyogenes): 8 µg/mL (≈ 30.5 µM)
- MIC (Pseudomonas aeruginosa B [3]): 128 µg/mL (≈ 488 µM)
- MIC (Salmonella species [4]): 8 µg/mL (≈ 30.5 µM)
- MIC (Proteus vulgaris 1017 [5]): 8 µg/mL (≈ 30.5 µM)
- MIC [6]: 32 µg/mL (≈ 122 µM)

Structure (SMILES): CCCCCCCCCCCCCCCCCC(=O)Nc1n[n+]([O-])c2ccccc2[n+]1[O-] [Example 6]
- MIC (Klebsiella 63): 128 µg/mL (≈ 288 µM)
- MIC (Klebsiella 8085): 8 µg/mL (≈ 18 µM)
- MIC (Pseudomonas aeruginosa w [1]): 128 µg/mL (≈ 288 µM)
- MIC (Escherichia coli A261): 128 µg/mL (≈ 288 µM)
- MIC (Escherichia coli C165): 128 µg/mL (≈ 288 µM)
- MIC [2]: 128 µg/mL (≈ 288 µM)
- MIC (Streptococcus pyogenes): 128 µg/mL (≈ 288 µM)
- MIC (Pseudomonas aeruginosa B [3]): 128 µg/mL (≈ 288 µM)
- MIC (Salmonella species [4]): 128 µg/mL (≈ 288 µM)
- MIC (Proteus vulgaris 1017 [5]): 128 µg/mL (≈ 288 µM)
- MIC [6]: 32 µg/mL (≈ 72 µM)

Structure (SMILES): CNC(=O)Nc1n[n+]([O-])c2ccccc2[n+]1[O-] [Example 7, 1'-methyl-3'-[1,4-dioxo-benzo-1,2,4-triazin-3-yl]-urea]
- MIC (Klebsiella 63): 8 µg/mL (≈ 34 µM)
- MIC (Klebsiella 8085): 1 µg/mL (≈ 4.25 µM)
- MIC (Pseudomonas aeruginosa w [1]): 128 µg/mL (≈ 544 µM)
- MIC (Escherichia coli A261): 4 µg/mL (≈ 17 µM)
- MIC (Escherichia coli C165): 4 µg/mL (≈ 17 µM)
- MIC [2]: 1 µg/mL (≈ 4.25 µM)
- MIC (Streptococcus pyogenes): 1 µg/mL (≈ 4.25 µM)
- MIC (Pseudomonas aeruginosa B [3]): 128 µg/mL (≈ 544 µM)
- MIC (Salmonella species [4]): 4 µg/mL (≈ 17 µM)
- MIC (Proteus vulgaris 1017 [5]): 1 µg/mL (≈ 4.25 µM)

Structure (SMILES): O=C(NCCO)Nc1n[n+]([O-])c2ccccc2[n+]1[O-] [Example 14, 1'-[1,4-dioxo-benzo-1,2,4-triazin-3-yl]-3'-[β-hydroxy-ethyl]-urea]
- turbidity after incubation (Enterobacter species): remained free of turbidity
- turbidity after incubation [7]: remained free of turbidity
- turbidity after incubation (Klebsiella K 10): remained free of turbidity
- turbidity after incubation (Clostridium botulinium): remained free of turbidity
- turbidity after incubation (Pseudomonas aeruginosa B [8]): remained free of turbidity
- turbidity after incubation (Shigella species): remained free of turbidity
- turbidity after incubation (Salmonella species [9]): remained free of turbidity
- turbidity after incubation (Klebsiella K 63): remained free of turbidity
- turbidity after incubation (Pseudomonas aeruginosa w [10]): remained free of turbidity
- turbidity after incubation (Serratia species): remained free of turbidity
- turbidity after incubation [11]: remained free of turbidity
- turbidity after incubation (Brucella species): remained free of turbidity
- turbidity after incubation [12]: remained free of turbidity
- turbidity after incubation [13]: remained free of turbidity
- turbidity after incubation (Bacteroides species): remained free of turbidity
- turbidity after incubation [14]: remained free of turbidity
- turbidity after incubation (Borrelia species): remained free of turbidity
- turbidity after incubation [15]: remained free of turbidity
- turbidity after incubation [16]: remained free of turbidity
- turbidity after incubation [17]: remained free of turbidity
- turbidity after incubation (Proteus vulgaris 1017 [18]): remained free of turbidity
- turbidity after incubation [19]: remained free of turbidity
- turbidity after incubation (Clostridium tetani): remained free of turbidity
- turbidity after incubation (Streptococcus pyogenes W): remained free of turbidity
- turbidity after incubation [20]: remained free of turbidity
- turbidity after incubation (Escherichia coli A 261): remained free of turbidity
- turbidity after incubation (Escherichia coli 14): remained free of turbidity
- turbidity after incubation (Enterococcus species): remained free of turbidity
- turbidity after incubation (Escherichia coli C 165): remained free of turbidity
- turbidity after incubation (Lactobacillus species): remained free of turbidity
- turbidity after incubation [21]: remained free of turbidity
